Measurements: publication PMC9308172 (Journal of medicinal chemistry, 2017)
Where two headings read alike, the source gives them in different places.

Columns and labels:
M2TMWT [1] = target: T1, M2TMWT (Influenza A virus, UniProt P0DOF5); conditions: cited from earlier work
[2] = test system: A/California/07/2009 (H1N1) M2: N31; conditions: cited from earlier work
M2TMWT [3] = target: T1, M2TMWT; type: binding

T1 sequence (P0DOF5 22-46 limits assumed): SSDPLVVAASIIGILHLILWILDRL

| Structure (SMILES) | TΔS (M2TMWT [1]) [kcal/mol] | ΔG (M2TMWT [1]) [kcal/mol] | ΔH (M2TMWT [1]) [kcal/mol] | % block after 3 min [2] | % block after 30 min [2] | ΔG (M2TMWT [3]) [kcal/mol] |
| --- | --- | --- | --- | --- | --- | --- |
| NC12CC3CC(CC(C3)C1)C2 [Compound 1, Amantadine, reference compound] | 1.11 ± 0.521 | -7.77 ± 0.141 | -6.661 ± 0.5 | 14 ± 2 (100 μM; 26) % |  |  |
| NC1C2CC3CC(C2)CC1C3 (stereo not drawn) [Compound 2] | 0.93 ± 0.44 | -7.959 ± 0.129 | -7.029 ± 0.421 | 13 ± 3 (100 μM; 2) % | 16 (100 μM; 1) % |  |
| CC1(N)C2CC3CC(C2)CC1C3 (stereo not drawn) [Compound 3] | 1.51 ± 0.289 | -8.31 ± 0.129 | -6.79 ± 0.261 |  |  |  |
| CCC1(N)C2CC3CC(C2)CC1C3 (stereo not drawn) [Compound 4] | 1.38 ± 0.251 | -8.521 ± 0.129 | -7.139 ± 0.21 |  |  |  |
| CCCC1(N)C2CC3CC(C2)CC1C3 (stereo not drawn) [Compound 5] | 0.932 ± 0.347 | -8.707 ± 0.165 | -7.796 ± 0.308 | 0 ± 5 (100 μM; 2) % | 9 ± 10 (100 μM, 3) % |  |
| C1CNC2(C1)C1CC3CC(C1)CC2C3 (stereo not drawn) [Compound 6] | 3.97 ± 0.614 | -9.109 ± 0.44 | -5.136 ± 0.421 |  |  |  |
| CN1CCCC12C1CC3CC(C1)CC2C3 (stereo not drawn) [Compound 7] | 4.46 ± 0.361 | -8.279 ± 0.229 | -3.819 ± 0.28 |  |  |  |
| CC12CC3CC(CC(C3)C13CCCN3)C2 (stereo not drawn) [Compound 8, 1′-Methylspiro[pyrrolidine-2,2′-adamantane]] | 3 ± 0.37 | -8.081 ± 0.201 | -5.079 ± 0.311 |  |  |  |
| NC1(C23CC4CC(CC(C4)C2)C3)CCCC1 [Compound 9] |  |  |  |  |  | -6.637 ± 0.189 |
